Results from patent US8236826B2, “Diarylether derivatives as antitumor agents” (Otsuka Pharmaceutical Co., Ltd., priority 2005, dated 2012).
Blank lines part the entries; values can stand above or below the compound they belong to.

Tests used:
[1] = tested on: human hepatic cancer cells (HuH-7); assay: Anti-proliferative effect on human hepatic cancer cells, sulforhodamine B method; assay type: cell-based; settings: 120 h, HuH-7 cells, cultured 5 days with compound
Description: (§1) Anti-proliferative effect of test compounds on human hepatic cancer cells (HuH-7), human lung cancer cells (EBC-1), human colorectal cancer cells (HCT116), human prostatic cancer cells (22Rv1), human pancreatic cancer cells (MIA PaCa-2), human stomach cancer cells (MKN45), human breast cancer cells (ZR-75-1) was checked by a sulforhodamine B method in accordance with Skehan P et al. (J. Natl. Cancer Inst. 1990 Jul. 4; 82(13): 1107-12). Explanation will be made taking HuH-7 cells as an example.
(§2) HuH-7 cells were seeded on DMEM medium (Dulbeco's modified Eagle Medium) containing 10% fetal bovine serum of a 96-well microplate and cultured at 37° C. for 24 hours in the presence of 5% carbon dioxide gas (CO2). Thereafter, a test compound was added to the wells and the cells were cultured for a further 5 days. […]
(§3) To each of the wells, a 1% aqueous acetic acid solution containing 0.4% sulforhodamine B was added and the wells were allowed to stand still at room temperature for 20 to 30 minutes. […] Subsequently, OD (optical density) was measured at a measurement wavelength of 492 nm and a reference wavelength of 690 nm to obtain the difference (A) in OD thus measured. Furthermore, the OD of a control well (containing no cells) was measured at a measurement wavelength of 492 nm and a reference wavelength of 690 nm to obtain the difference (B) in OD. […]

[2] = tested on: human lung cancer cells (EBC-1); assay: Anti-proliferative effect on human lung cancer cells, sulforhodamine B method; assay type: cell-based; settings: EBC-1 cells
Description: as §1, §2, §3

[3] = tested on: human colorectal cancer cells (HCT116); assay: Anti-proliferative effect on human colorectal cancer cells, sulforhodamine B method; assay type: cell-based; settings: HCT-116
Description: as §1, §2, §3

[4] = tested on: human prostatic cancer cells (22Rv1); assay: Anti-proliferative effect on human prostatic cancer cells, sulforhodamine B method; assay type: cell-based; settings: 22Rv1 cells
Description: as §1, §2, §3

[5] = tested on: human pancreatic cancer cells (MIA PaCa-2); assay: Anti-proliferative effect on human pancreatic cancer cells, sulforhodamine B method; assay type: cell-based; settings: MIA PaCa-2 cells
Description: as §1, §2, §3

[6] = tested on: human stomach cancer cells (MKN45); assay: Anti-proliferative effect on human stomach cancer cells, sulforhodamine B method; assay type: cell-based; settings: MKN-45
Description: as §1, §2, §3

[7] = tested on: human breast cancer cells (ZR-75-1); assay: Anti-proliferative effect on human breast cancer cells, sulforhodamine B method; assay type: cell-based; settings: ZR-75-1 cells
Description: as §1, §2, §3

[8] = tested on: human chronic myelogenous leukemia cells (KU812); assay: Anti-proliferative effect on human chronic myelogenous leukemia cells, MTT assay; assay type: cell-based; settings: 120 h, cultured 5 days with compound
Method: (§4) Anti-proliferative effect of test compounds on human chronic myelogenous leukemia cells (KU812) was determined by an MTT assay in accordance with the method described in Singh A K et al. (Cancer Lett. 1996 Oct. 1; 107(1): 109-15). To describe more specifically, KU812 cells were seeded on RPMI 1640 medium containing 10% fetal bovine serum of a 96-well microplate, cultured at 37° C. for 24 hours in the presence of a 5% carbon dioxide gas (CO2). Thereafter, a test compound was added to the wells and the cells were cultured for a further 5 days. After the incubation, 10 μl of 5 mg/mL MTT ([…]) was added to the wells. After the cells were cultured for 4 hours, 100 μl of 0.01N HCl containing 10% SDS (sodium dodecyl sulfate) was added to the wells, which was further cultured overnight. Subsequently, OD was measured at a measurement wavelength of 570 nm and a reference wavelength of 690 nm to obtain the difference (A) in OD. Furthermore, OD of a control well (containing no cells) was measured at a measurement wavelength of 570 nm and a reference wavelength of 690 nm to obtain the difference (B) in OD. The difference (A−B) was regarded as the cell proliferation activity of each of the wells. […]

[9] = tested on: human renal cancer cells (Caki-2); assay: Anti-proliferative effect on human renal cancer cells, sulforhodamine B method; assay type: cell-based; settings: Caki-2 cells
[10] = tested on: human multiple myeloma cells (IM-9); assay: Anti-proliferative effect on human multiple myeloma cells, MTT assay; assay type: cell-based; settings: IM-9 cells
Method: [The source words this procedure for another cell line and reports this cell line under the same test.] as §4

[11] = tested on: human acute myelogenous leukemia cells (KG-1); assay: Anti-proliferative effect on human acute myelogenous leukemia cells, MTT assay; assay type: cell-based; settings: KG-1 cells
Method: [The source words this procedure for another cell line and reports this cell line under the same test.] as §4

[12] = tested on: Human hepatic cancer cells HuH-7; assay: Anti-tumor effect on HuH-7 cells transplanted into SCID mice; assay type: in vivo; settings: 100 mg/kg/day orally once a day for 9 days, HuH-7 tumor in SCID mice
Method: Pharmacological Test 2 Anti-Cancer Effect […] on Hepatic Cancer Cells HuH-7
Human hepatic cancer cells HuH-7 were transplanted into SCID mice (a group of 6 female mice). Anti-tumor effect of test compounds according to the present invention was checked. To describe more specifically, the cancer cells were cultured in advance and a cell suspension solution containing the cancer cells in a concentration of 2.5×10^7 cells/mL was prepared. Then, 0.2 mL of the cell suspension solution was injected into the right axillary region of each of the mice to transplant the cancer cells. In this manner, cancer-bearing mice were prepared. […] Next day after completion of administration, the volume of a tumor was measured. The ratio in volume of a tumor at the time of grouping relative to that measured next day after completion of administration was calculated to obtain a relative tumor volume of each group. Then, the ratio (T/C %) in relative tumor volume of […] (administrated with a test compound) was calculated and used as an index of the effect. Relative tumor volume=tumor volume measured on the next day of completion of administration/tumor volume measured at the time of grouping (T/C %)=(an average value of relative tumor volume of test compound administration group)/(an average value of relative tumor volume of a control group)×100

[13] = tested on: human Burkitt's lymphoma cells (Daudi); assay: Cell proliferation suppression activity on human Burkitt's lymphoma cells, MTT assay; assay type: cell-based; settings: applied dose 10 nM
Method: [The source words this procedure for another cell line and reports this cell line under the same test.] as §4

[14] = tested on: human lymphoma cells (U937); assay: Cell proliferation suppression activity on human lymphoma cells, MTT assay; assay type: cell-based; settings: applied dose 10 nM
Method: [The source words this procedure for another cell line and reports this cell line under the same test.] as §4

IC50 [1]: < 100 nM
IC50 [2]: < 100 nM
IC50 [3]: < 100 nM
IC50 [4]: < 100 nM
IC50 [5]: < 100 nM
IC50 [6]: < 100 nM
IC50 [7]: < 1000 nM
IC50 [8]: < 100 nM
IC50 [9]: < 100 nM
IC50 [10]: < 100 nM
IC50 [11]: < 100 nM
Compound: O=C(Nc1ccc(Oc2ccc(CCC(=O)N3CCN(Cc4ccc5c(c4)OCO5)CC3)cc2)nc1)c1ccc(C(F)(F)F)cc1 [Example 1039, N-(6-{4-[3-(4-piperonylpiperazin-1-yl)-3-oxopropyl]phenoxy}pyridin-3-yl)-4-trifluoromethylbenzamide]

IC50 [1]: < 100 nM
IC50 [2]: < 100 nM
IC50 [3]: < 100 nM
IC50 [4]: < 100 nM
IC50 [5]: < 100 nM
IC50 [6]: < 100 nM
IC50 [7]: < 100 nM
IC50 [8]: < 100 nM
IC50 [9]: < 100 nM
IC50 [10]: < 100 nM
IC50 [11]: < 100 nM
Compound: Cc1cc(N(C)CC(=O)N2CCN(Cc3ccc4c(c3)OCO4)CC2)ccc1Oc1ccc(NC(=O)c2ccc(C(F)(F)F)cc2)cn1 [Example 1503, N-[6-(4-{[2-(4-piperonylpiperazin-1-yl)-2-oxoethyl]methylamino}-2-methylphenoxy)pyridin-3-yl]-4-trifluoromethylbenzamide]
T/C % (relative tumor volume, test group vs control group) [12]: <50%
Daudi (T/C %) cell proliferation suppression activity [13]: <70%
U937 (T/C %) cell proliferation suppression activity [14]: <70%

melting point: 116 to 118 °C
Compound: O=C(Nc1ccc(Oc2ccc(N3CCN(C(=O)COc4ccc5c(c4)OCO5)CC3)cc2)cc1)c1ccc(Cl)c(Cl)c1 [Example 2053]

melting point: 133 to 135 °C
Compound: Cc1cc(N(C)CC(=O)N2CCN(C(=O)c3ccc4c(c3)OCO4)CC2)ccc1Oc1ccc(NC(=O)c2ccc(Cl)c(Cl)c2)cn1 [Example 2054]

melting point: 150 to 165 °C
Compound: CC(=O)N(c1ccc(CCC(=O)N2CCN(Cc3ccc4c(c3)OCO4)CC2)cc1)c1ccc(NC(=O)c2ccc(Cl)c(Cl)c2)cn1 [Example 2099, N-[6-(Acetyl{4-[3-oxo-3-(4-piperonylpiperazin-1-yl)propyl]phenyl}amino)pyridin-3-yl]-3,4-dichlorobenzamide]

melting point: 156 to 158 °C
Compound: Cc1cc(N2CCC(CC(=O)N3CCN(Cc4ccc5c(c4)OCO5)CC3)CC2)ccc1Oc1ccc(NS(=O)(=O)c2ccc(C(F)(F)F)cc2)cn1 [Example 2703, N-[6-(4-{4-[2-(4-piperonylpiperazin-1-yl)-2-oxoethyl]piperidin-1-yl}-2-methylphenoxy)pyridin-3-yl]-4-trifluoromethylbenzenesulfonamide]

melting point: 163.1 to 166.5 °C
Compound: Cc1cc(N(C)CC(=O)N2CCN(Cc3ccc4c(c3)OCO4)CC2)ccc1Oc1ccc(NC(=O)c2ccc(-n3cccc3)cc2)cn1 [Example 2711, N-[6-(4-{[2-(4-piperonylpiperazin-1-yl)-2-oxoethyl]methylamino}-2-methylphenoxy)pyridin-3-yl]-4-pyrrole-1-ylbenzamide]

melting point: 177.8 to 180.1 °C
Compound: CCN(CC(=O)N1CCN(Cc2ccc3c(c2)OCO3)CC1)c1ccc(Oc2ccc(NS(=O)(=O)c3ccc(C(F)(F)F)cc3)cn2)c(F)c1 [Example 2712, N-[6-(4-{[2-(4-piperonylpiperazin-1-yl)-2-oxoethyl]ethylamino}-2-fluorophenoxy)pyridin-3-yl]-4-trifluoromethylbenzenesulfonamide]

More lines, now with the values behind:

Compound: O=C(Nc1ccc(Oc2ccc(C3=CCN(CCCn4ccnc4)CC3)cc2)cc1)c1ccc(Cl)c(Cl)c1 [Example 2486, 3,4-Dichloro-N-(4-{4-[1-(3-imidazole-1-ylpropyl)-1,2,3,6-tetrahydropyridine-4-yl]phenoxy}phenyl)-benzamide]
melting point: 169 to 171 °C

Compound: O=C(Nc1ccc(Oc2ccc(N3CCN(C(=O)CN4CCOCC4)CC3)cc2)cc1)c1ccc(Cl)c(Cl)c1 [Example 2559]
melting point: 177 to 178 °C

Compound: O=C(CN1CCOCC1)c1ccc(Oc2ccc(NC(=O)c3ccc(Cl)c(Cl)c3)cc2F)cc1 [Example 2563]
melting point: 177 to 178 °C

Compound: O=C(Nc1ccc(Oc2ccc(C3=CCN(C(=O)CN4CCOCC4)CC3)cc2)cc1)c1ccc(Cl)c(Cl)c1 [Example 2565]
melting point: 195 to 197 °C

Compound: CN(C(=O)CN1CCOCC1)C1CCN(c2ccc(Oc3ccc(NC(=O)c4ccc(Cl)c(Cl)c4)cc3)cc2)CC1 [Example 2572]
melting point: 157 to 160 °C

Compound: O=C(C1CCN(c2ccc(Oc3ccc(NS(=O)(=O)c4ccc(Cl)c(Cl)c4)cn3)cc2)CC1)N1CCN(Cc2ccccc2)CC1 [Example 2710, N-(6-{4-[4-(4-benzylpiperazine-1-carbonyl)piperidin-1-yl]phenoxy}pyridin-3-yl)-3,4-dichlorobenzenesulfonamide]
melting point: 185 to 189 °C
